Measured values reported in publication PMC9381536, “Non-apoptotic cell death induction via sapogenin based supramolecular particles” (Scientific Reports, 2022).

Assays:
A549 = assay: Cytotoxicity analysis (WST-1); format: cell-based; conditions: Homo sapiens, A549, 48 h
Experimental: (§1) HCC1937 (Human breast cancer line), HeLa (Human […]), A549 (Human lung adenocarcinoma), MRC-5 (Human lung fibroblasts), MCF7 (Human breast cancer cells), A549 (human lung carcinoma) were obtained from American Type Culture Collection and maintained as exponentially growing monolayers by culturing according to the supplier’s instructions. MCF7, HeLa, MRC-5, and A549 cell lines were cultured and routinely passaged in DMEM media containing 10% FBS, while HCC1937 cell lines were propagated in RPMI 1640 containing 10% FBS.
(§2) Following the treatment with compounds or vehicle for 48 h, the 10% WST-1 (Roche, Switzerland) in medium was replaced in each 96 well. After 4 h incubation with WST-1 reagent at 37 °C and 5% CO2, the absorbance was measured using a microplate reader at 440 nm (Varioscan, Thermo Fisher Scientific, US). Graph Pad Prism 5 (San Diego, CA, US.) was used to calculate the IC50, which represents the concentration of compounds that is required for 50% inhibition in comparison to the vehicle-treated controls. The experiments were repeated three times independently.

HCC1937 = assay: Cytotoxicity analysis (WST-1); format: cell-based; conditions: Homo sapiens, HCC1937, 48 h
Experimental: as §1, §2

HeLa = assay: Cytotoxicity analysis (WST-1); format: cell-based; conditions: Homo sapiens, 48 h
Experimental: as §1, §2

MCF7 = assay: Cytotoxicity analysis (WST-1); format: cell-based; conditions: Homo sapiens, MCF7, 48 h
Experimental: as §1, §2

MRC-5 = assay: Cytotoxicity analysis (WST-1); format: cell-based; conditions: Homo sapiens, MRC5, MRC-5 normal cell line, 48 h
Experimental: as §1, §2

[1] = system: HeLa, HCC1937, MCF7, A549 and MRC-5; assay: cells; format: cell-based, Human
Description: We next aimed to further characterize the relation between the chemical structure of AG-08 and its capacity of supramolecular assembly formation together with its biological activities by preparing further derivatives. In this regard, 18 analogs (Fig. 4) were synthesized from 20(27)-octanor-cycloastragenol (SCG), cycloastragenol (CG), and astragenol (AG) by the methods shown in the method section. The details and characterization of which are shown in Supplementary Information. The cytotoxic activities of the semi-synthetic analogs were evaluated against four human cancer cell lines, namely HeLa, HCC1937, MCF7, and A549 as well as against MRC-5 as a normal cell line.
as §1, §2

SMILES | IC50 (A549) [µM] | IC50 (HCC1937) [µM] | IC50 (HeLa) [µM] | IC50 (MCF7) [µM] | IC50 (MRC-5) [µM] | cytotoxic activity (structure-activity statement) [1]
Cc1ccc(S(=O)(=O)OC2CC3(C)CCC45CC46CCC(O)C(C)(C)C6C=CC5C3(C)C2)cc1 (centres unmarked) [SCG-05] | > 50 | > 50 | > 50 | > 50 | > 50 | 
CC1(C)C(O)CCC23CC24CCC2(C)CC(OS(C)(=O)=O)CC2(C)C4CC(O)C13 (centres unmarked) [SCG-07] | > 50 | > 50 | > 50 | > 50 | > 50 | 
CC(C)(O)C1CCC(C)(C2C(O)CC3(C)C4C=CC5C(C)(C)C(O)CCC56CC46CCC23C)O1 (centres unmarked) [CG-02] | 21.1 | 32.5 | 43.9 | 21.2 | 33.4 | did not exhibit antiproliferative effect
CC1(C)C(O)CCC23CC24CCC2(C)CC(O)CC2(C)C4C=CC13 (centres unmarked) [SCG-02] | > 50 | > 50 | > 50 | > 50 | > 50 | 
Cc1ccc(S(=O)(=O)OC2CC3(C)CCC45CC46CCC(OS(=O)(=O)c4ccc(C)cc4)C(C)(C)C6C=CC5C3(C)C2)cc1 (centres unmarked) [SCG-04] | > 50 | > 50 | > 50 | > 50 | > 50 | 
CN(C)c1cccc2c(S(=O)(=O)OC3CCC4(C)C5=CCC6(C)C(C7(C)CCC(C(C)(C)O)O7)C(O)CC6(C)C5C=CC4C3(C)C)cccc12 (centres unmarked) [AG-07] | 38.2 | 38.3 | 34.7 |  | 7.4 | loss of activity
CC(C)(O)C1CCC(C)(C2C(O)CC3(C)C4C=CC5C(C)(CCC(O)C5(C)C)C4=CCC23C)O1 (centres unmarked) [AG-03] | 25.5 | 20.3 | 33.4 | 21.8 | 24.4 | 
Cc1ccc(S(=O)(=O)OC2CC3(C)CCC45CC46CCC(O)C(C)(C)C6C(O)CC5C3(C)C2)cc1 (centres unmarked) [SCG-01] | > 50 | > 50 | > 50 | > 50 | > 50 | 
CC(C)(O)C1CCC(C)(C2C(O)CC3(C)C4C=CC5C(C)(C)C(OS(C)(=O)=O)CCC56CC46CCC23C)O1 (centres unmarked) [CG-04] | > 50 | > 50 | > 50 | > 50 | > 50 | the activity was lost
CC1(C)C(OS(C)(=O)=O)CCC23CC24CCC2(C)CC(OS(C)(=O)=O)CC2(C)C4C=CC13 (centres unmarked) [SCG-06] | > 50 | > 50 | > 50 | > 50 | > 50 | 
CC(C)(O)C1CCC(C)(C2C(O)CC3(C)C4CC(=O)C5C(C)(CCC(O)C5(C)C)C4=CCC23C)O1 (centres unmarked) [AG-01] | > 30 | > 30 | > 30 | > 30 | > 30 | 
CC1(C)C(O)CCC23CC24CCC2(C)CC(O)CC2(C)C4CC(O)C13 (centres unmarked) [SCG, 20(27)-octanor-cycloastragenol, reference compound] | > 50 | > 50 | > 50 | > 50 | > 50 | 
CC(C)(O)C1CCC(C)(C2C(O)CC3(C)C4CC(O)C5C(C)(C)C(O)CCC56CC46CCC23C)O1 (centres unmarked) [CG, cycloastragenol, reference compound] | > 50 | > 50 | > 50 | > 50 | > 50 | 
Cc1ccc(S(=O)(=O)OC2CC3C4(C)CC(O)CC4(C)CCC34CC43CC=CC(C)(C)C23)cc1 (centres unmarked) [SCG-03] | > 50 | > 50 | > 50 | > 50 | > 50 | 
CC(C)(O)C1CCC(C)(C2C(O)CC3(C)C4CC(=O)C5C(C)(C)C(O)CCC56CC46CCC23C)O1 (centres unmarked) [CG-01] | > 30 | > 30 | > 30 | > 30 | > 30 | 
